According to US20230212549A1, “COMPOUNDS COMPRISING A […] LIGAND AND USE THEREOF” (priority 2021, published 2023):
Numbered stars: 1 amine (or outer) side, 2 acyl side, 3 side chain; on linkers, the order of the positions; unused ones are H or OH. Bridge positions count the residues as written; N and C are the ends. Square brackets hold non-standard residues; d marks the D form. Peptide text beside a SMILES is read from it. * marks the point of attachment. TBMB(SCH2CH2NH-DOTA) = O=C(O)CN1CCN(CC(=O)O)CCN(CC(=O)NCCSCc2cc(C[*:1])cc(C[*:2])c2)CCN(CC(=O)O)CC1; X13 = O=C(O)CN1CCN(CC(=O)O)CCN(CC(=O)N2CCN(Cc3cc(C[*:1])cc(C[*:2])c3)CC2)CCN(CC(=O)O)CC1; X12 = O=C(O)CN1CCN(CC(=O)O)CCN(CC(=O)NCCCOCCOCCOCCCN*)CCN(CC(=O)O)CC1; DOTA = O=C(O)CN1CCN(CC(=O)O)CCN(CC(=O)*)CCN(CC(=O)O)CC1; 2Nal = N[C@@H](Cc1ccc2ccccc2c1)C(=O)O; mXylylene = c1cc(C[*:1])cc(C[*:2])c1; PEG6 = NCCOCCOCCOCCOCCOCCOCCC(=O)O; Pentanesulfonyl = CCCCCS(=O)(=O)*; Pyrazinecarbonyl = O=C(c1cnccn1)*; NMeF = CN[C@@H](Cc1ccccc1)C(=O)O; X29 = O=C(CN1CCN([*:1])CC1)[*:2]; NMeE = CN[C@@H](CCC(=O)O)C(=O)O; Pen = CC(C)(S)[C@H](N)C(=O)O; Suc = O=C(CCC(=O)[*:2])[*:1]; Nle = CCCC[C@H](N)C(=O)O; Orn = NCCC[C@H](N)C(=O)O; X2 = NCCNCC(CNCCN)C(=O)*; Hexanoyl = CCCCCC(=O)*; AEEA = NCCOCCOCC(=O)O

Experiments:
Human recombinant FAP = Human recombinant FAP (Homo sapiens, UniProt Q12884); experiment: FRET-based FAP protease activity assay; type: biochemical; set-up: purchased R&D systems 3715-SE
Sequence of Human recombinant FAP (Q12884 whole entry): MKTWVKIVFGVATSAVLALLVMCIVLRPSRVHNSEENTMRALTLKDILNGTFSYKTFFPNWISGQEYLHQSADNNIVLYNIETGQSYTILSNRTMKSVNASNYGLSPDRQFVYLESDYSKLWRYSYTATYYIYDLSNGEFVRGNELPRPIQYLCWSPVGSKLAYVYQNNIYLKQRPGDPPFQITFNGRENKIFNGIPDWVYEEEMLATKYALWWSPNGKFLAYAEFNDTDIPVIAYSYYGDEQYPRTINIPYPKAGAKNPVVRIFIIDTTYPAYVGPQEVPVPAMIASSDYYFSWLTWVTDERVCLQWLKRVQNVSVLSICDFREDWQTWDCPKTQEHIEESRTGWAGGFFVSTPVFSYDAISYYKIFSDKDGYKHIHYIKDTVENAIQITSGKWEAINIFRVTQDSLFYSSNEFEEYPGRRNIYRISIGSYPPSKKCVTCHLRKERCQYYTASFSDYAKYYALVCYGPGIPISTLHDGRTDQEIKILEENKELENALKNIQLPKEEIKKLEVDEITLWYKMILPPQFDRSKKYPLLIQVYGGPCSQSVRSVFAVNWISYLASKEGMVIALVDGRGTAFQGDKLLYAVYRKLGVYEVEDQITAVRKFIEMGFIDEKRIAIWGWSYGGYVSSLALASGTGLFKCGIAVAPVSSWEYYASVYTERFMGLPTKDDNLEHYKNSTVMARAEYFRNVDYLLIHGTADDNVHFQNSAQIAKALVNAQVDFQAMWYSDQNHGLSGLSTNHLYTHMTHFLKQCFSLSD

[1] = target: T1, FAP-expressing human WI-38 fibroblasts (Homo sapiens, UniProt Q12884); experiment: Competitive FACS binding assay
T1 construct: FAP-expressing human WI-38 fibroblasts (ECACC) were cultured in EMEM; host or cells: WI-38 human fibroblasts
T1 sequence (Q12884 whole entry): as above
Protocol: Cells were analyzed in an Attune NxT flow cytometer. […] […].
Cells were analyzed in an Attune NxT flow cytometer. […]

[2] = pIC50 Category (Activity), FRET-based FAP protease activity assay, recombinant human FAP, 37° C.
[3] = pIC50 Category (Activity), FRET-peptide substrate, 37° C.
[4] = pIC50 Category (activity), Recombinant human FAP

Row | SMILES | IC50 (Human recombinant FAP; [2]) [nM] | IC50 [1] [nM] | IC50 (Human recombinant FAP; [3]) [nM] | IC50 (Human recombinant FAP; [4]) [nM]
1 | CCCCCC(=O)N[C@H]1CSCc2cccc(c2)CSC[C@@H](C(N)=O)NC(=O)[C@H](Cc2ccccc2)NC(=O)[C@H](CCC(=O)O)NC(=O)[C@H](CCCNC(C)=O)NC(=O)[C@@H]2CCCN2C(=O)[C@@H]2CCCN2C1=O [3BP-3372, Hex-[Cys(3MeBn)-Pro-Pro-Orn(Ac)-Glu-Phe-Cys]-NH2] (Hexanoyl-CPP[Orn](Ac)EFC-NH2; linker 1-7 via mXylylene) | 100 to 794 | > 1000 |  | 
2 | CCCCCC(=O)N[C@H]1CSCc2cccc(c2)CSC[C@@H](C(N)=O)NC(=O)[C@H](Cc2ccccc2)NC(=O)[C@H](CCC(=O)O)NC(=O)[C@H](CCCNC(=O)c2cnccn2)NC(=O)[C@@H]2CCCN2C(=O)[C@@H]2CCCN2C1=O [3BP-3355, Hex-[Cys(3MeBn)-Pro-Pro-Opc-Glu-Phe-Cys]-NH2] (Hexanoyl-CPP[Orn](Pyrazinecarbonyl)EFC-NH2; linker 1-7 via mXylylene) | 100 to 794 | > 1000 |  | 
3 | C[C@@H](O)[C@@H]1NC(=O)[C@@H]2CCCN2C(=O)[C@@H]2CCCN2C(=O)[C@@H](NC(=O)C2CCCC2)CSCc2cc(CSCCNC(=O)CN3CCN(CC(=O)O)CCN(CC(=O)O)CCN(CC(=O)O)CC3)cc(c2)CSC[C@@H](C(=O)O)NC(=O)[C@H](Cc2ccccc2)NC(=O)[C@H](CCC(N)=O)NC1=O [3BP-3909, Cp-[Cys(tMeBn(DOTA-AET))-Pro-Pro-Thr-Gln-Phe-Cys]-OH] |  | 10 to 79.4 | 10 to 79.4 | 
4 | CCCCCC(=O)N[C@H]1CSCc2cc(CSCCNC(=O)COCCOCCNC(=O)CCC(C(=O)O)N3CCN(CC(=O)O)CCN(CC(=O)O)CC3)cc(c2)CSCC(C(N)=O)NC(=O)[C@H](Cc2ccccc2)NC(=O)[C@H](CCC(N)=O)NC(=O)[C@H]([C@@H](C)O)NC(=O)[C@@H]2CCCN2C(=O)[C@@H]2CCCN2C1=O (stereo partly drawn) [3BP-4708, Hex-[Cys(tMeBn(NODAGA-O2Oc-AET))-Pro-Pro-Thr-Gln-Phe-Cys]-NH2] |  | < 10 |  | < 10
5 | COCCCC(=O)N[C@H]1CSCc2cc(CSCCNC(=O)CN3CCN(CC(=O)O)CCN(CC(=O)O)CCN(CC(=O)O)CC3)cc(c2)CSC[C@@H](C(=O)O)NC(=O)[C@H](Cc2ccccc2)NC(=O)[C@H](CCC(N)=O)NC(=O)[C@H]([C@@H](C)O)NC(=O)[C@@H]2CCCN2C(=O)[C@@H]2CCCN2C1=O [3BP-3937, MeOBut-[Cys(tMeBn(DOTA-AET))-Pro-Pro-Thr-Gln-Phe-Cys]-OH] |  | < 10 | 10 to 79.4 | 
6 | CC(C)C[C@H](NC(=O)CCC(=O)NCCCOCCOCCOCCCNC(=O)CN1CCN(CC(=O)O)CCN(CC(=O)O)CCN(CC(=O)O)CC1)C(=O)N[C@H]1CSCc2cccc(c2)CSC[C@@H](C(=O)N[C@@H](CC(=O)O)C(=O)N[C@@H](Cc2c[nH]cn2)C(=O)N[C@@H](Cc2ccccc2)C(=O)N[C@@H](CCCNC(=N)N)C(=O)N[C@@H](CC(=O)O)C(N)=O)NC(=O)[C@H](Cc2ccccc2)NC(=O)[C@H](CCC(=O)O)NC(=O)[C@H]([C@@H](C)O)NC(=O)[C@@H]2CCCN2C(=O)[C@@H]2CCCN2C1=O [3BP-3172, DOTA-Ttds-Leu-[Cys(3MeBn)-Pro-Pro-Thr-Glu-Phe-Cys]-Asp-His-Phe-Arg-Asp-NH2] ({X12-Suc}-LCPPTEFCDHFRD-NH2; linker 2-8 via mXylylene) | < 10 | < 10 |  | 
7 | CCCCCC(=O)N[C@H]1CSCc2cc(CSCCNC(=O)CCC(=O)NCCCOCCOCCOCCCNC(=O)[C@H](CO)NC(=O)[C@H](CO)NC(=O)[C@H](CO)NC(=O)CS)cc(c2)CSC[C@@H](C(=O)O)NC(=O)[C@H](Cc2ccccc2)NC(=O)[C@H](CCC(N)=O)NC(=O)[C@H]([C@@H](C)O)NC(=O)[C@@H]2CCCN2C(=O)[C@@H]2CCCN2C1=O [3BP-4308, Hex-[Cys-(tMeBn(H-SAc-Ser-Ser-Ser-Ttds-AET))-Pro-Pro-Thr-Gln-Phe-Cys]-OH] |  | 10 to 79.4 | 10 to 79.4 | 
8 | C[C@@H](O)[C@@H]1NC(=O)[C@@H]2CCCN2C(=O)[C@@H]2CCCN2C(=O)[C@@H](NC(=O)COCCOCCNC(=O)CN2CCN(CC(=O)O)CCN(CC(=O)O)CCN(CC(=O)O)CC2)CSCc2cccc(c2)CSC[C@@H](C(=O)N[C@@H](CC(=O)O)C(=O)N[C@@H](Cc2c[nH]cn2)C(=O)N(C)[C@@H](Cc2ccccc2)C(=O)N[C@@H](CCCNC(=N)N)C(=O)N[C@@H](CC(=O)O)C(N)=O)NC(=O)[C@H](Cc2ccccc2)NC(=O)[C@H](CCC(=O)O)NC1=O [3BP-3267, DOTA-O2Oc-[Cys(3MeBn)-Pro-Pro-Thr-Glu-Phe-Cys]-Asp-His-Nmf-Arg-Asp-NH2] ({DOTA-AEEA}-CPPTEFCDH[NMeF]RD-NH2; linker 1-7 via mXylylene) | 100 to 794 | 100 to 794 |  | 
9 | CCCC[C@H](NC(=O)CCOCCOCCOCCOCCOCCOCCNC(=O)CN1CCN(C(=O)C(CNCCN)CNCCN)CC1)C(=O)N[C@H]1CSCc2cccc(c2)CSC[C@@H](C(=O)O)NC(=O)[C@H](Cc2ccccc2)NC(=O)[C@H](CCC(=O)O)NC(=O)[C@H]([C@@H](C)O)NC(=O)[C@@H]2CCCN2C(=O)[C@@H]2CCCN2C1=O [3BP-4781, N4Ac-PPAc-PEG6-Nle-[Cys(3MeBn)-Pro-Pro-Thr-Glu-Phe-Cys]-OH] (X2-[X29][PEG6][Nle]CPPTEFC-OH; linker 4-10 via mXylylene) |  | 10 to 79.4 |  | 10 to 79.4
10 | CCCCCC(=O)N[C@H]1CSCc2cc(cc(CN3CCN(C(=O)CN4CCN(CC(=O)O)CCN(CC(=O)O)CCN(CC(=O)O)CC4)CC3)c2)CSC[C@@H](C(=O)N[C@@H](CC(=O)O)C(N)=O)NC(=O)[C@H](Cc2ccccc2)NC(=O)[C@H](C)NC(=O)[C@H]([C@@H](C)O)NC(=O)[C@@H]2CCCN2C(=O)[C@@H]2CCCN2C1=O [3BP-3739, Hex-[Cys(tMeBn(DOTA-PP))-Pro-Pro-Thr-Ala-Phe-Cys]-Asp-NH2] (Hexanoyl-CPPTAFCD-NH2; linker 1-7 via X13) | 100 to 794 | 100 to 794 |  | 
11 | CCCCCC(=O)N[C@H]1CSCc2cccc(c2)CSC[C@@H](C(N)=O)NC(=O)[C@H](Cc2ccccc2)NC(=O)[C@H](CCC(=O)O)N(C)C(=O)[C@H]([C@@H](C)O)NC(=O)[C@@H]2CCCN2C(=O)[C@@H]2CCCN2C1=O [3BP-3357, Hex-[Cys(3MeBn)-Pro-Pro-Thr-Nme-Phe-Cys]-NH2] (Hexanoyl-CPPT[NMeE]FC-NH2; linker 1-7 via mXylylene) | > 1000 | > 1000 |  | 

Second part, led by results:

Row | IC50 (Human recombinant FAP; [2]) [nM] | IC50 [1] [nM] | IC50 (Human recombinant FAP; [3]) [nM] | SMILES | IC50 (Human recombinant FAP; [4]) [nM]
12 | 100 to 794 | 100 to 794 |  | CCCCCC(=O)N[C@H]1CSCc2cccc(c2)CSC[C@@H](C(N)=O)NC(=O)[C@H](Cc2ccc3ccccc3c2)NC(=O)[C@H](CCC(=O)O)NC(=O)[C@H]([C@@H](C)O)NC(=O)[C@@H]2CCCN2C(=O)[C@@H]2CCCN2C1=O [3BP-3362, Hex-[Cys(3MeBn)-Pro-Pro-Thr-Glu-2Ni-Cys]-NH2] (Hexanoyl-CPPTE[2Nal]C-NH2; linker 1-7 via mXylylene) | 
13 |  | < 10 | < 10 | CCCC[C@H](NC(=O)CCC(=O)NCCCOCCOCCOCCCNC(=O)CN1CCN(CC(=O)O)CCN(CC(=O)O)CCN(CC(=O)O)CC1)C(=O)N[C@H]1CSCc2cccc(c2)CSC[C@@H](C(=O)N[C@@H](CC(=O)O)C(=O)NCCCOCCOCCOCCCNC(=O)CCC(=O)N[C@@H](CCCCNC(=O)CN2CCN(CC(=O)O)CCN(CC(=O)O)CCN(CC(=O)O)CC2)C(N)=O)NC(=O)[C@H](Cc2ccccc2)NC(=O)[C@H](CCC(N)=O)NC(=O)[C@H]([C@@H](C)O)NC(=O)[C@@H]2CCCN2C(=O)[C@@H]2CCCN2C1=O [3BP-4393, DOTA-Ttds-Nle-[Cys(3MeBn)-Pro-Pro-Thr-Gln-Phe-Cys]-Asp-Ttds-Lys(DOTA)-NH2] | 
14 | 10 to 79.4 | < 10 |  | CCCCCS(=O)(=O)N[C@H]1CSCc2cc(CSCCNC(=O)CN3CCN(CC(=O)O)CCN(CC(=O)O)CCN(CC(=O)O)CC3)cc(c2)CSC[C@@H](C(=O)O)NC(=O)[C@H](Cc2ccccc2)NC(=O)[C@H](CCC(=O)O)NC(=O)[C@H]([C@@H](C)O)NC(=O)[C@@H]2CCCN2C(=O)[C@@H]2CCCN2C1=O [3BP-3691, Pentyl-SO2-[Cys(tMeBn(DOTA-AET))-Pro-Pro-Thr-Glu-Phe-Cys]-OH] (Pentanesulfonyl-CPPTEFC-OH; linker 1-7 via TBMB(SCH2CH2NH-DOTA)) | 
15 | 100 to 794 | > 1000 |  | CCCCCC(=O)N[C@H]1CSCc2cccc(c2)CSC(C)(C)[C@@H](C(N)=O)NC(=O)[C@H](Cc2ccccc2)NC(=O)[C@H](CCC(=O)O)NC(=O)[C@H]([C@@H](C)O)NC(=O)[C@@H]2CCCN2C(=O)[C@@H]2CCCN2C1=O [3BP-3351, Hex-[Cys(3MeBn)-Pro-Pro-Thr-Glu-Phe-Pen]-NH2] (Hexanoyl-CPPTEF[Pen]-NH2; linker 1-7 via mXylylene) | 
16 | 100 to 794 | > 1000 |  | C[C@@H](O)[C@@H]1NC(=O)[C@@H]2CCCN2C(=O)[C@@H]2CCCN2C(=O)[C@@H](NC(=O)Cc2ccncc2)CSCc2cccc(c2)CSC[C@@H](C(N)=O)NC(=O)[C@H](Cc2ccccc2)NC(=O)[C@H](CCC(N)=O)NC1=O [3BP-3762, 4Pya-[Cys(3MeBn)-Pro-Pro-Thr-Gln-Phe-Cys]-NH2] | 
17 |  | 100 to 794 | 100 to 794 | C[C@@H](O)[C@@H]1NC(=O)[C@@H]2CCCN2C(=O)[C@@H]2CCCN2C(=O)[C@@H](NC(=O)C2CCCCC2)CSCc2cc(CSCCNC(=O)CN3CCN(CC(=O)O)CCN(CC(=O)O)CCN(CC(=O)O)CC3)cc(c2)CSC[C@@H](C(=O)O)NC(=O)[C@H](Cc2ccccc2)NC(=O)[C@H](CCC(N)=O)NC1=O [3BP-3908, Chex-[Cys(tMeBn(DOTA-AET))-Pro-Pro-Thr-Gln-Phe-Cys]-OH] | 
18 | < 10 | 10 to 79.4 |  | CCCCCC(=O)N[C@H]1CSCc2cccc(c2)CSC[C@@H](C(N)=O)NC(=O)[C@H](Cc2ccccc2C(F)(F)F)NC(=O)[C@H](CCC(N)=O)NC(=O)[C@H]([C@@H](C)O)NC(=O)[C@@H]2CCCN2C(=O)[C@@H]2CCCN2C1=O [3BP-3409, Hex-[Cys(3MeBn)-Pro-Pro-Thr-Gln-Otf-Cys]-NH2] | 
